Assay results: patent publication US9259467B2, “Mammalian receptors as targets for antibody and active vaccination therapy against mold infections” (Los Angeles Biomedical Research Institute at Harbor-UCLA …, priority 2009, dated 2016)

Key:
Type in all cases: cell-based, human
[1] = system: R. oryzae germlings on endothelial cells; assay: Differential fluorescence assay of adherence and endocytosis of R. oryzae germlings by endothelial cells; conditions: for Reduction of endothelial cell endocytosis of R. oryzae: phenanthroline 60 μM for 16 hours, cytochalasin D 200 nM
Procedure: The number of organisms endocytosed by endothelial cells or CHO cells was determined using a modification of a previously described differential fluorescence assay (Ibrahim et al., Infect Immun. 63(11):4368-4374 (1995)). Briefly, 12-mm glass coverslips in a 24-well cell culture plate were coated with fibronectin for at least 4 hours and seeded with endothelial or CHO cells until confluency. After washing twice with prewarmed HBSS, the cells were then infected with 10^5 cells of R. oryzae in RPMI 1640 medium that had been germinated for 1 hour. Following incubation for 3 hours, the cells were fixed in 3% paraformaldehyde and were stained for 1 hour with 1% Uvitex (a gift from Jay Isharani, Ciba-Geigy, Greensboro, N.C., USA), which specifically binds to the chitin of the fungal cell wall. After washing 3 times with PBS, the coverslips were mounted on a glass slide with a drop of ProLong Gold antifade reagent and sealed with nail polish. The total number of cell-associated organisms (i.e., germlings adhering to monolayer) was determined by phase-contrast microscopy. The same field was examined by epifluorescence microscopy, and the number of uninternalized germlings (which were brightly fluorescent) was determined. The number of endocytosed organisms was calculated by subtracting the number of fluorescent organisms from the total number of visible organisms. At least 400 organisms were counted in 20-40 different fields on each slide. Two slides per arm were used for each experiment, and the experiment was performed in triplicate on different days. […]
To determine the effects of chelating endothelial cell iron on interactions with R. oryzae, endothelial cells were incubated with different concentrations of phenanthroline for 16 hours. To prevent chelation of the radioisotope, ^51Cr was added to endothelial cells 24 hours prior to the addition of phenanthroline (Fratti et al., Infect Immun. 66(1):191-196 (1998)). To confirm that the effects of phenanthroline on R. oryzae-induced endocytosis by and damage of endothelial cells were due to chelation of endothelial cell iron, exogenous iron in the form of hemin was added to endothelial cells at a final concentration of 20 μM, 2 hours before phenanthroline (Fratti et al., supra). As a positive control for prevention of endocytosis, the microfilament disruptant cytochalasin D (Sigma-Aldrich) was added at a concentration of 200 nM simultaneously with R. oryzae germlings, and endocytosis was determined as above (Ibrahim et al., Infect Immun. 63(11):4368-4374 (1995)). […]

[2] = system: GRP78; assay: Cell surface expression of GRP78 on endothelial cells by FACS; conditions: high iron levels (0, 15, or 50 μM FeCl3 tested); flow cytometry
Procedure: Cell surface expression of GRP78 on endothelial cells exposed to varying concentrations of FeCl3 was quantified using FACS analysis. Briefly, endothelial cells grown in 25-cm flasks were dissociated using 1.5 ml enzyme-free dissociation buffer (Invitrogen). Cells were blocked with 50% goat serum, then stained with monoclonal anti-GRP78 Ab (BD Biosciences) at 1:100 for 1 hour. Endothelial cells were counterstained with ALEXA FLUOR 488-labeled anti-mouse IgG at 1:100 for 1 hour. Endothelial cells exposed to a similar concentration of FeCl3 or glucose and stained with an isotype matching control IgG (BD Biosciences) were used as negative control. A FACSCaliber (BD) instrument equipped with an argon laser emitting at 488 nm was used for flow cytometric analysis. Fluorescence data were collected with logarithmic amplifiers. The population percent fluorescence of 5×10^3 events was calculated using CellQuest software (BD).

[3] = system: GRP78 transcript; assay: Quantification of GRP78 expression in endothelial cells by real time RT-PCR; conditions: for GRP78 expression: data not shown
Procedure: The transductions were performed according to the manufacturer's protocol. Briefly, 1.6×10^4 endothelial cells were seeded into 96-well plate and incubated for about 20 hours at 37° C. in a 5% CO2 incubator. Cells were infected with lentiviral particles at an MOI of 20 in the presence of 8 μg/ml polybrene (Sigma-Aldrich) overnight. The transduced cells were incubated in fresh M199 medium for 4 more days. Puromycin at 0.2 μg/ml was added to select for puromycin-resistant cell pools, which usually took approximately 10 days of incubating at 37° C. in 5% CO^2. The puromycin-resistant cells were passaged until an appropriate amount of cells was obtained for endocytosis or damage assays as above. Reduction of GRP78 expression was confirmed by using real time RT-PCR (see below).
For quantification of GRP78 expression in endothelial or CHO cells, real time RT-PCR was carried out using a Power SYBR Green Cells-to-CT kit (Applied Biosystems) to extract RNA from 2×10^4 cells. Primers to amplify GRP78 from endothelial cells and CHO cells were 5′-[…]-3′ (SEQ ID NO: 3) and 5′-[…]-3′ (SEQ ID NO: 4). Primers 5′-ACCATCTTCCAGGAGCGAG-3′ (SEQ ID NO: 5) and 5′-TAAGCAGTTGGTGGTGCAG-3′ (SEQ ID NO: 6) were used to amplify the housekeeping gene GAPDH, which was used as a control.
To study the effect of acidosis, endothelial cells exposed to different pHs, ranging from 6.8 to 7.4, were grown in MEM buffered with HEPES for 5 hours in the presence or absence of phenanthroline. Next, endothelial cells were washed twice with cold PBS, and GRP78 total expression was quantified by real-time RT-PCR. […] To study the effect of hyperosmolarity and statins on GRP78 expression, endothelial cells in MEM were incubated with 1, 4, or 8 mg/ml mannitol or 5, 20, or 40 μg/ml lovastatin for 20 hours. […] GRP78 expression, endocytosis, and damage assays were conducted as above.

[4] = system: R. oryzae germlings on endothelial cells; assay: 51Cr release assay of R. oryzae-induced endothelial cell damage
Procedure: R. oryzae-induced endothelial or CHO cell damage was quantified by using a chromium (^51Cr) release assay (Ibrahim et al., J Infect Dis. 198(7):1083-1090 (2008)). Briefly, endothelial cells or CHO cells grown in 96-well tissue culture plates containing detachable wells were incubated with 1 μCi per well of Na2^51CrO4 (ICN) in M-199 medium (for endothelial cells) or Alpha minimum Eagle's medium (for CHO cells) for 16 hours.
On the day of the experiment, the unincorporated ^51Cr was aspirated, and the wells were washed twice with warmed HBSS (Irvine Scientific). Cells were infected with fungal germlings (1.5×10^5 germinated for 1 hour) suspended in 150 μl RPMI 1640 medium (Irvine Scientific) supplemented with glutamine. Spontaneous ^51Cr release was determined by incubating endothelial or CHO cells in RPMI 1640 medium supplemented with glutamine without R. oryzae. […] The amount of ^51Cr in the aspirate and the detached well was determined by gamma counting. […] After the data were corrected for variations in the amount of tracer incorporated in each well, the percentage of specific endothelial cell release of ^51Cr was calculated by the following formula: [(experimental release×2)−(spontaneous release×2)]/[total incorporation−(spontaneous release×2)]. […]

[5] = 15 or 50 μM FeCl3, vs no exogenous FeCl3

With `[Cl][Fe]([Cl])[Cl]` [FeCl3] the “Enhancement of R. oryzae-induced endocytosis” value [1, 5] was 80%, the “Increase of surface expression of GRP78 protein” value [2] was 150% and the “Increase in endothelial cell GRP78 expression” value ([3]; FeCl3 at iron concentrations of DKA sera, 5 hours, vs no iron) was no more than 12 fold. The “Enhancement of R. oryzae-induced endothelial cell damage” value [4, 5] was 80%.

With `C=C1[C@@H](C)[C@H]2[C@H](Cc3ccccc3)NC(=O)[C@]23[C@H](OC(C)=O)/C=C/[C@@](C)(O)C(=O)[C@@H](C)C/C=C/[C@H]3[C@@H]1O` [cytochalasin D] the “Reduction of endothelial cell endocytosis of R. oryzae” value [1] was “approximately 70%”.

`CC[C@H](C)C(=O)O[C@H]1C[C@@H](C)C=C2C=C[C@H](C)[C@H](CC[C@@H]3C[C@@H](O)CC(=O)O3)[C@H]21` [lovastatin] was tested, and the GRP78 expression ([3]; lovastatin 5, 20, or 40 μg/ml for 20 hours) was “No evidence of alterations in expression”.

For `OC[C@@H](O)[C@@H](O)[C@H](O)[C@H](O)CO` [mannitol], the GRP78 expression ([3]; mannitol 1, 4, and 8 mg/ml for 20 hours) was “No change in GRP78 expression”.

With `c1cnc2c(c1)ccc1cccnc12` [phenanthroline] the “Reduction of endothelial cell endocytosis of R. oryzae” value [1] was “approximately 70%”, the “Endothelial cell GRP78 expression in the setting of acidosis” value ([3]; pH 6.8 to 7.4, 5 hours, with phenanthroline) was “reversed GRP78 expression back to normal levels” and the “R. oryzae-induced endothelial cell damage” value ([4]; varying concentrations of phenanthroline for 16 h, removed before assay) was “prevented R. oryzae-induced endothelial cell damage in a concentration-dependent manner”.

With hemin [exogenous iron] the “Effect on the inhibition of endocytosis caused by the iron chelator phenanthroline” value ([1]; hemin 20 μM added 2 hours before phenanthroline) was “completely reversed the inhibition of endocytosis”.
